Test results as given in the supplement of paper PMC12494721.
Where a name gives a salt, the structure may show the parent alone.

Assays:
Details in all cases: incubation time: 27 h, anaerobic, 37 °C
[1] = system: Clostridium sporogenes DSM 1664; assay: fold change of Tryptamine concentration vs plate DMSO controls (fold change (ratio)); higher = more amine produced
[2] = system: Clostridium sporogenes DSM 1664; assay: growth (OD595) fold change vs plate DMSO controls (fold change (ratio)); higher = more growth
[3] = system: Ruminococcus gnavus DSM 108212; assay: fold change of 2-Phenylethylamine concentration vs plate DMSO controls (fold change (ratio)); higher = more amine produced
[4] = system: Ruminococcus gnavus DSM 108212; assay: fold change of Tryptamine concentration vs plate DMSO controls (fold change (ratio)); higher = more amine produced
[5] = system: Ruminococcus gnavus DSM 108212; assay: growth (OD595) fold change vs plate DMSO controls (fold change (ratio)); higher = more growth

| SMILES | fold change of Tryptamine concentration ([1]; 0.6125 µM) | fold change of Tryptamine concentration ([1]; 1.25 µM) | fold change of Tryptamine concentration ([1]; 2.5 µM) | fold change of Tryptamine concentration ([1]; 5 µM) | fold change of Tryptamine concentration ([1]; 10 µM) | fold change of Tryptamine concentration ([1]; 20 µM) | growth ([2]; 0.6125 µM) | growth ([2]; 1.25 µM) | growth ([2]; 2.5 µM) | growth ([2]; 5 µM) | growth ([2]; 10 µM) | growth ([2]; 20 µM) | fold change of 2-Phenylethylamine concentration ([3]; 0.6125 µM) | fold change of 2-Phenylethylamine concentration ([3]; 1.25 µM) | fold change of 2-Phenylethylamine concentration ([3]; 2.5 µM) | fold change of 2-Phenylethylamine concentration ([3]; 5 µM) | fold change of 2-Phenylethylamine concentration ([3]; 10 µM) | fold change of 2-Phenylethylamine concentration ([3]; 20 µM) | fold change of Tryptamine concentration ([4]; 0.6125 µM) | fold change of Tryptamine concentration ([4]; 1.25 µM) | fold change of Tryptamine concentration ([4]; 2.5 µM) | fold change of Tryptamine concentration ([4]; 5 µM) | fold change of Tryptamine concentration ([4]; 10 µM) | fold change of Tryptamine concentration ([4]; 20 µM) | growth ([5]; 0.6125 µM) | growth ([5]; 1.25 µM) | growth ([5]; 2.5 µM) | growth ([5]; 5 µM) | growth ([5]; 10 µM) | growth ([5]; 20 µM) |
| --- | --- | --- | --- | --- | --- | --- | --- | --- | --- | --- | --- | --- | --- | --- | --- | --- | --- | --- | --- | --- | --- | --- | --- | --- | --- | --- | --- | --- | --- | --- |
| CC[C@@]1([C@@H]2O[C@@H]([C@H]3O[C@@](O)(CO)[C@H](C)C[C@@H]3C)C[C@@H]2C)CC[C@H]([C@]2(C)CC[C@]3(C[C@H](O)[C@@H](C)[C@@H]([C@@H](C)[C@@H](OC)[C@H](C)C(=O)O)O3)O2)O1 [Monensin sodium salt] | 0.986 | 0.919 | 0.785 | 0.555 | 0.39 | 0.267 | 0.907 | 0.829 | 0.712 | 0.829 | 0.664 | 0.516 |  |  |  |  |  |  |  |  |  |  |  |  |  |  |  |  |  |  |
| CCn1cc(C(=O)O)c(=O)c2cc3c(cc21)OCO3 [Oxolinic acid] | 0.975 | 1.03 | 1.13 | 0.788 | 0.446 | 0.0475 | 1.04 | 0.931 | 1.05 | 0.775 | 0.806 | -0.028 |  |  |  |  |  |  |  |  |  |  |  |  |  |  |  |  |  |  |
| CN(C)[C@@H]1C(=O)C(C(N)=O)=C(O)[C@@]2(O)C(=O)C3=C(O)c4c(O)cccc4[C@@](C)(O)[C@H]3[C@H](O)[C@@H]12 [Oxytetracycline dihydrate] |  |  |  |  |  |  |  |  |  |  |  |  | 0.956 | 1.13 | 1.34 | 2.06 | 2.02 | 2.08 | 1.13 | 1.31 | 1.69 | 2.71 | 2.8 | 2.82 | 0.833 | 0.83 | 0.68 | 0.594 | 0.414 | 0.356 |
| CC(C)(c1cc(Br)c(O)c(Br)c1)c1cc(Br)c(O)c(Br)c1 [TBBPA] | 1.18 | 1.18 | 1.18 | 1.27 | 0.379 | 0.0168 | 1.09 | 1.16 | 1.25 | 1.25 | 0.452 | -0.0298 |  |  |  |  |  |  |  |  |  |  |  |  |  |  |  |  |  |  |
| CS(=O)(=O)c1ccc([C@@H](O)[C@@H](CO)NC(=O)C(Cl)Cl)cc1 [Thiamphenicol] |  |  |  |  |  |  |  |  |  |  |  |  | 1.16 | 1.23 | 0.61 | 0.471 | 0.3 | 0.329 | 1.04 | 0.877 | 0.535 | 0.443 | 0.342 | 0.267 | 0.84 | 0.789 | 0.797 | 0.686 | 0.57 | 0.38 |
| CO[C@H]1C[C@H](O[C@H]2[C@H](C)[C@@H](O[C@@H]3O[C@H](C)C[C@H](N(C)C)[C@H]3OC(C)=O)[C@@H](C)C[C@@]3(CO3)C(=O)[C@H](C)[C@@H](OC(C)=O)[C@@H](C)[C@@H](C)OC(=O)[C@@H]2C)O[C@@H](C)[C@@H]1OC(C)=O [Troleandomycin] | 1.07 | 1.17 | 1.21 | 1.21 | 0.983 | 0.344 | 1.05 | 1.01 | 0.886 | 0.87 | 0.89 | 0.236 |  |  |  |  |  |  |  |  |  |  |  |  |  |  |  |  |  |  |
